The term pIC50 denotes the negative decadic logarithm of the IC50, by convention in mol/L.

These results are taken from US8975265B2, “Substituted imidazo[1,2-a]pyrimidines and —pyridines” (Bayer Intellectual Property GmbH, priority 2010, dated 2015).

pIC50: −log10 of the molar value. Where two headings read alike, the source gives them in different places.

Assay [1] relates to KPL-4 breast cancer cell line. As to the kind of experiment: Tumor cell proliferation assay (CellTiter-Glo, 72 h), KPL-4. In kind it is cell-based. To be noted: KPL4, 72h drug exposure. The essentials: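 KPL-4 cells were treated with compound for 72 h at 37°C. Viability was measured as ATP by CellTiter-Glo luminescence, with a separate t=0 plate read after overnight attachment. A reference compound was run as standard.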
A general note: ATP-based viability assays read luminescence as a measure of living cells.

Assay [2] relates to p-AKT1/2/3-S473 in KPL4 breast tumour cell line. As to the kind of experiment: Cellular p-AKT1/2/3-S473 assay. In kind it is cell-based. As to conditions: KPL4 breast tumour cell line, 2 hours treatment; read-out: pAKT-S743 median IC50. In outline: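 KPL4 cells (PIK3CA H1047R, HER2 0/E, hormone independent) were seeded at 60–80% confluency, cultured overnight, then exposed to compound for 2 h at 37 °C. pAKT-S473 and total AKT measured together by MSD Akt Duplex on 20 µg extract; pAKT expressed as % of total AKT, at least duplicate with independent repeats.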

Assay [3] deals with His-tagged human recombinant kinase full-length Akt1 (Homo sapiens (Human), UniProt P31749). Description: Akt1 kinase assay (TR-FRET). As to conditions: 10 μM ATP; read-out: Akt1, median IC50. In kind it is biochemical. In outline:
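Full-length His-tagged Akt1 (about 0.05 ng/μl final) preincubated 15 min at 22 °C with compound in 50 mM TRIS/HCl pH 7.5, 5 mM MgCl2, 1 mM DTT, 0.02% Triton X-100; biotinylated peptide substrate. Phosphopeptide detected by TR-FRET (Eu-chelate antibody to streptavidin-XL665) after 1 h at 22 °C.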
A general note: Time-resolved FRET reads energy transfer from a long-lived donor to a nearby acceptor.

For assay [4], the system named is LnCAP. Description: Tumor cell proliferation assay (CellTiter-Glo, 72 h), LnCAP. In kind it is cell-based. As to conditions: Homo sapiens, 72h drug exposure. The method, then: Compounds were tested in a cell-based assay that measures the capacity of the compounds to inhibit tumour cell proliferation following a 72h drug exposure. Cell viability is determined using CellTiter-Glow® (CTG, Promega, cat# G7571/2/3). The CellTiter-Glo® Luminescent Cell Viability Assay is a homogeneous method to determine the number of viable cells in culture. Detection is based on using the luciferase reaction to measure the amount of ATP from viable cells. The amount of ATP in cells correlates with cell viability. Within minutes after a loss of membrane integrity, cells lose the ability to synthesize ATP, and endogenous ATPases destroy any remaining ATP; thus the levels of ATP fall precipitously.
Cells were plated at 3000-5000 cells/well (depending on the cell lines) in 90 μL growth medium on MTPs (Corning; #3603, black plate, clear flat bottom). For each cell line assayed, cells were plated onto a separate plate for determination of […] at t=0 hour and t=72 hour time points. Following overnight incubation at 37° C., chemiluminescence values for the t=0 samples were determined after adding 10 μl medium and 100 μl CTG solution according to manufacture protocol. Plates for the t=72 hour time points were treated with compounds diluted into growth medium at ten times final concentration added in 10 μL to the cell culture plate. Cells were then incubated for 72 hours at 37° C. Chemiluminescence values for the t=72 hour samples were determined. […] Experiments were controlled using a reference compound as standard.

For assay [5], the system named is MCF7. Description: Tumor cell proliferation assay (CellTiter-Glo, 72 h), MCF7. In kind it is cell-based. To be noted: Homo sapiens, 72h drug exposure. The essentials: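 Cells seeded at 3000–5000/well and incubated overnight, then exposed to compound for 72 h at 37 °C. Viability measured by CellTiter-Glo ATP luminescence, with a separate plate read at t=0.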
Assay [6] has as its system p-4E-BP1-T70 in KPL4 breast tumour cell line. Description: Cellular p-4E-BP1-T70 assay. Format: cell-based. To be noted: 2 hours treatment, read-out: P4EBP1-T70 median IC50. The essentials:
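KPL4 cells (PIK3CA H1047R, hormone independent) seeded at 60-80% confluency, incubated overnight, then exposed to compounds for 2 h at 37 °C. Lysates assayed for phospho-4E-BP1 T70 by AlphaScreen SureFire, in at least duplicate with independent repetition.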

Assay [7] concerns p-AKT S473 in PC3 human prostate tumours. As to the kind of experiment: In vivo xenograft mechanism of action study. Also on record: species or system athymic nude mice. As to conditions: Mus musculus, po, PC3 tumours in nude mice, once 50 mg/kg p.o. From the text: In Vivo Xenograft Mechanism of Action Study
To this extent PC3 human prostate tumours were xenografted onto athymic nude mice. PC3 tumour cells were cultivated according to ATCC protocols in recommended media contained 10% FCS and harvested for transplantation in a subconfluent (70%) state. 3×10^6 tumour cells suspended in 50% Matrigel were subcutaneously implantated into the inguinal region of male mice. Tumours were allowed to grow to the predetermined size of 60-80 mm^2. When the tumours were approximately in size, the animals were randomized to treatment and control groups (groups size: 9 animals) and treatment was started. Animals were treated once with 50 mg/kg compound or vehicle per oral administration (p.o.) carried out via a gastric tube. Treatment of each animal was based on individual body weight. At 2, 5 and 24 hours post treatment 3 animals each were sacrificed and the PC3 tumours excised. Tumour samples of approximately 5×5×5 mm were lysed on ice in MSD lysis buffer in the presence of protease and phosphatase inhibitors using Tissue Lyzer (Qiagen, Germany). The levels of p-AKT S473 in extracts from tumour tissue were analysed in an ELISA based assay. This assay is based on the “Akt Duplex” of the MULTI-SPOT® Assay System (Fa. Meso Scale Discovery, Cat# N41100B-1) following manufacturers instructions. Each assay used 20 μg of protein extract and measured total AKT and p-AKT content simultaneously in one well. All measurements where at least done in duplicates and confirmed by independent repetition.
Values for P-AKT are expressed as percentage of P-AKT level compared to total-AKT content of the extracts. Vehicle treated tumours were analyzed to determine the basal level of P-AKT in this model and used as a normalization control to determine the % P-AKT relative to vehicle levels.

The mark [8] stands for this setting: 2 hours post treatment, read-out: P-AKT % relative to control at 2 hours.
The mark [9] stands for this setting: 5 hours post treatment, read-out: P-AKT % relative to control at 5 hours.

His-tagged human recombinant kinase full-length Akt1, sequence (P31749 whole entry): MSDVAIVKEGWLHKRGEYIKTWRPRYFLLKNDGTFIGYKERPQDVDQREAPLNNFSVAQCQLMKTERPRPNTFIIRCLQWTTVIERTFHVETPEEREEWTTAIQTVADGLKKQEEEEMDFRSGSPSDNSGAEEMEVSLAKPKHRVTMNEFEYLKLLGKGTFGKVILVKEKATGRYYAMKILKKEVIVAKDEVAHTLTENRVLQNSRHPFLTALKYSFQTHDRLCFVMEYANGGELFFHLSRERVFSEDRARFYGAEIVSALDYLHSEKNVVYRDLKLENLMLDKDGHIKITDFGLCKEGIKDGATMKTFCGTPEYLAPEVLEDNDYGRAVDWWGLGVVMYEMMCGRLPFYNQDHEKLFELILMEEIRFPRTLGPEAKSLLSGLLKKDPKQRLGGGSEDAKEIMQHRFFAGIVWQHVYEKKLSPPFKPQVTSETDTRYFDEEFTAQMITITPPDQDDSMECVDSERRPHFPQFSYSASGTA

On to `CCc1ccn2c(-c3ccccc3)c(-c3ccc(C4(N)CCC4)cc3)nc2c1` [Example 2-21], for which the pIC50 in assay [1] was 5.70; in assay [2], 6.27; in assay [3], 5.78; in assay [4] it was 5.72; in assay [5], 5.70.

With `NC1(c2ccc(-c3nc4c(F)cc(F)cn4c3-c3ccccc3)cc2)CCC1` [Example 2-75], the negative-log IC50 (pIC50) is 5.80 in assay [6]; 5.96 in assay [1]; 7.10 in assay [2]; 7.28 in assay [3]; 6.22 in assay [5]. The response vs control in vivo at 50 mg/kg in assay [7] (setting [8]) was 5.5%; in assay [7] (setting [9]), 6.2%.

Take `Cc1cc(-c2ccn[nH]2)c2nc(-c3ccc(C4(N)CCC4)cc3)c(-c3ccccc3)n2c1` [Example 2-92]: the pIC50 in assay [6] was 5.81; in assay [1], 5.37; in assay [2], 5.85; in assay [3], 6.64; in assay [5], 5.37. The response vs control in vivo at 50 mg/kg came out at 34.6% in assay [7] (setting [8]) and 22% in assay [7] (setting [9]).

In the case of `Cc1cc(C(N)=O)c2nc(-c3ccc(C4(N)CCC4)cc3)c(-c3ccccc3)n2c1` [Example 2-96], the pIC50 was 5.74 in assay [6]; 5.00 in assay [1]; 5.79 in assay [2]; 6.05 in assay [3]; 5.00 in assay [5]. For the same compound, the response vs control in vivo at 50 mg/kg in assay [7] (setting [8]) is 12.2%; in assay [7] (setting [9]), 11.4%.

As to `NC1(c2ccc(-c3nc4cc(-c5cnc[nH]5)ccn4c3-c3ccccc3)cc2)CCC1` [Example 2-115], the pIC50 was 5.74 in assay [1], 6.72 in assay [2] and 5.77 in assay [4].

With `COC(=O)CCc1ccn2c(-c3ccccc3)c(-c3ccc(C4(N)CCC4)cc3)nc2c1` [Example 2-125], the pIC50 in assay [1] was 5.51; in assay [2], 5.51; in assay [3] it was 5.46; in assay [4], 5.00.

For the compound `CCNC(=O)c1ccn2c(-c3ccccc3)c(-c3ccc(C4(N)CCC4)cc3)nc2c1` [Example 2-126], the pIC50 is 5.80 in assay [1], 6.90 in assay [2], 6.22 in assay [3] and 6.00 in assay [4].

Take `NC1(c2ccc(-c3nc4cc(C(=O)NO)ccn4c3-c3ccccc3)cc2)CCC1` [Example 2-127]: the pIC50 in assay [6] was 5.31; in assay [1] it was 5.27; in assay [2], 5.77; in assay [3] it was 6.88; in assay [4], 5.92.

Consider `Cn1cncc1-c1ccc2nc(-c3ccc(C4(N)CCC4)cc3)c(-c3ccccc3)n2c1` [Example 2-133], for which the figures for the pIC50 in assay [1], in assay [2] and in assay [4] were 5.70, 6.61 and 5.77, respectively.

For `Cn1cc(-c2ccc3nc(-c4ccc(C5(N)CCC5)cc4)c(-c4ccccc4)n3c2)cn1` [Example 2-134], the pIC50 in assay [2] is 6.88; in assay [3] it was 6.16; in assay [4], 5.74.

In the case of `NC1(c2ccc(-c3nc4ccc(Cl)cn4c3-c3ccccc3)cc2)CCC1` [Example 2-140], the pIC50 in assay [6] is 5.58; in assay [1] it was 5.72; in assay [2] it was 6.94; in assay [5], 6.30. Besides, the response vs control in vivo at 50 mg/kg in assay [7] (setting [8]) was determined as 26%; in assay [7] (setting [9]) it was 18%.

For the compound `CCOC(=O)c1ccc2nc(-c3ccc(C4(N)CCC4)cc3)c(-c3ccccc3)n2c1` [Example 2-143], the pIC50 in assay [6] is 5.92; in assay [1], 5.02; in assay [2] it was 6.05; in assay [3], 7.03; in assay [4], 5.74.

In the case of `CC(=O)c1ccc2nc(-c3ccc(C4(N)CCC4)cc3)c(-c3ccccc3)n2c1` [Example 2-144], the pIC50 in assay [6] was 5.88; in assay [1], 5.77; in assay [2], 7.04; in assay [3], 7.26; in assay [5], 5.89. For the same compound, the response vs control in vivo at 50 mg/kg in assay [7] (setting [8]) is 6.3%; in assay [7] (setting [9]), 8%.

Regarding `COc1cc(Cl)cn2c(-c3ccccc3)c(-c3ccc(C4(N)CCC4)cc3)nc12` [Example 2-145], the pIC50 in assay [6] is 5.92; in assay [1], 6.00; in assay [2], 6.98; in assay [3], 7.62; in assay [5], 6.52. In addition, the values for the response vs control in vivo at 50 mg/kg in assay [7] (setting [8]) and in assay [7] (setting [9]) were 33% and 38%, respectively.

In the case of `COc1cc(OC)c2nc(-c3ccc(C4(N)CCC4)cc3)c(-c3ccccc3)n2c1` [Example 2-146], the pIC50 in assay [6] was 6.20; in assay [1] it was 6.15; in assay [2], 7.37; in assay [5] it was 6.22. Moreover, the response vs control in vivo at 50 mg/kg stood at 17.5% in assay [7] (setting [8]) and 22.3% in assay [7] (setting [9]).

`NC(=O)c1cccn2c(-c3ccccc3)c(-c3ccc(C4(N)CCC4)cc3)nc12` [Example 6-0, 2-[4-(1-amino-cyclobutyl)-phenyl]-3-phenyl-imidazo[1,2-a]pyridine-8-carboxylic acid amide]: the pIC50 in assay [6] is 6.21; in assay [1], 6.10; in assay [2], 7.80; in assay [3], 7.24; in assay [5], 6.40. The response vs control in vivo at 50 mg/kg amounted to 5.8% in assay [7] (setting [8]) and 6% in assay [7] (setting [9]).

As for `NC1(c2ccc(-c3nc4ccc(-c5cccnc5O)cn4c3-c3ccccc3)cc2)CCC1` [Example 11-0, 3-{2-[4-(1-amino-cyclobutyl)-phenyl]-3-phenyl-imidazo[1,2-a]pyridin-6-yl}-pyridin-2-ol], the pIC50 is 5.66 in assay [1], 6.23 in assay [2], 5.82 in assay [3] and 5.70 in assay [4].

As to `Cc1cc(-c2ccc3nc(-c4ccc(C5(N)CCC5)cc4)c(-c4ccccc4)n3c2)[nH]n1` [Example 12-0, 1-{4-[6(5-methyl-2H-pyrazol-3-yl)-3-phenyl-imidazo[1,2-a]pyridin-2-yl]-phenyl}-cyclobutylamine], the pIC50 in assay [1] was 5.72; in assay [2] it was 6.47; in assay [3], 6.16; in assay [4] it was 5.77.
